Measured values taken from patent US20250154154A1 (Relay Binney Street, 2nd Floor, priority 2020, published 2025).

Target: SRC (Homo sapiens, UniProt P12931)
Assay: SRC Biochemical Assay Protocol (microfluidic mobility shift assay, FLPeptide4 substrate)
Experimental: SRC Biochemical Assay Protocol
Src biochemical kinase activity was measured using a surrogate fluorescent peptide substrate [FLPeptide4; 5-FAM-EGIYGVLFKKK-CONH2 (PerkinElmer Cat. No. 760348)] with a microfluidic mobility shift assay. Reactions were performed in 384-well flat bottom polystyrene microplates (Corning Cat. No. 3570) at a final volume of 20 μL in 50 mM HEPES pH 7.4, 1 mM EGTA, 10 mM MgCl2, 0.01% Brij-35, 2 mM DTT, 0.05% BSA, 1% DMSO. Inhibition experiments were performed with compounds of the invention varying from 0.0017-100 μM with 0.26 nM SRC, 1.5 μM FLPeptide4, and 50 μM ATP. Specifically, 15 μl 1.3× mixtures of SRC+FLPeptide4+compounds were preincubated for 30 minutes at room temperature followed by addition of 5 μL 4×ATP. Reactions were carried out for 90 minutes then quenched with 40 μl 500 mM EDTA. Phosphorylated peptide product was measured with a mobility shift assay using a LabChip® EZ Reader system (PerkinElmer Cat. No. 122919). Inhibition ratios were calculated relative to neutral controls and IC50 values were obtained from dose response data fitted to a 4-parameter logistic model.

Row | Compound | IC50 [nM]
1 | C=CC(=O)N1CCC(C#Cc2c(-c3ccc(Oc4cccc(Cl)c4)cc3)c3c(N)ncnc3n2C(C)C)CC1 [Example I-36] | 10 to 1000
2 | C=CC(=O)N1CCC(C#Cc2c(-c3ccc(Oc4ncccn4)cc3)c3c(N)ncnc3n2C(C)C)CC1 [Example I-15] | 10 to 1000
3 | C=CC(=O)N1CC(N2CCC(C#Cc3c(-c4ccc(Nc5ccccn5)cc4)c4c(N)ncnc4n3C(C)C)CC2)C1 [Example I-46] | 10 to 1000
4 | CC(C)n1c(C#CC2CCN(C3CNC3)CC2)c(-c2ccc(Oc3ccccc3)cc2)c2c(N)ncnc21 [II-153, 6-((1-(azetidin-3-yl)piperidin-4-yl)ethynyl)-7-isopropyl-5-(4-phenoxyphenyl)-7H-pyrrolo[2,3-d]pyrimidin-4-amine] | ≤ 10
5 | C=CC(=O)N1CCC(N2CC(C#Cc3c(-c4ccc(Oc5cccc(C)n5)c(OC)c4)c4c(N)ncnc4n3C3CCOC3)C2)CC1 (stereo not drawn) [II-125] | 10 to 1000
6 | 1-(4-(3-((4-amino- 7-isopropyl-5-(3- methoxy-4-(6- methylpyridin-2- yloxy)phenyl)-7H- pyrrolo[2,3- d]pyrimidin-6- yl)ethynyl)azetidin- 1-yl)piperidin-1- yl)prop-2-en-1-one [II-306] | 10 to 1000
7 | C=CC(=O)N1CCC(C#Cc2c(-c3ccc(Oc4ccccc4C#N)cc3)c3c(N)ncnc3n2C(C)C)CC1 [Example I-31] | 10 to 1000
8 | C=CC(=O)N1CCC(C#Cc2c(-c3ccc(Nc4cccc(C)n4)cc3)c3c(N)ncnc3n2C(C)C)CC1 [Example I-22] | 10 to 1000
9 | C=CC(=O)N1CCC(C#Cc2c(-c3cnc(Oc4ccccc4)nc3)c3c(N)ncnc3n2C(C)C)CC1 [Example I-13] | 1000 to 10000
10 | CC#CC(=O)N1CCC(C#Cc2c(-c3ccc(Oc4ccccc4)cc3)c3c(N)ncnc3n2C(C)C)CC1 [Example I-18] | 10 to 1000
11 | C=CS(=O)(=O)N1CC(N2CCC(C#Cc3c(-c4ccc(Oc5ccccc5)cc4)c4c(N)ncnc4n3C(C)C)CC2)C1 [Example I-53] | ≤ 10
12 | CC(C)n1c(C#CC2CNC2)c(-c2ccc(Oc3ccccc3)cc2)c2c(N)ncnc21 [II-152, 6-(azetidin-3-ylethynyl)-7-isopropyl-5-(4-phenoxyphenyl)-7H-pyrrolo[2,3-d]pyrimidin-4-amine] | ≤ 10
13 | N-[(1r,4r)-4-[2-[4- amino-7-(2- hydroxyethyl)-5- [3-methoxy-4-[(6- methylpyridin-2- yl)oxy]phenyl]- 7H-pyrrolo[2,3- d]pyrimidin-6- yllethynyl] cyclohexyl] prop-2- enamide [II-311] | ≤ 10
14 | CC(C)n1c(C#CC2CCNC2)c(-c2ccc(Oc3ccccc3)cc2)c2c(N)ncnc21 (stereo not drawn) [II-157, 7-isopropyl-5-(4-phenoxyphenyl)-6-(pyrrolidin-3-ylethynyl)-7H-pyrrolo[2,3-d]pyrimidin-4-amine] | ≤ 10
15 | C=CC(=O)N1CCC(C#Cc2c(-c3ccc(Oc4ccccc4)cc3)c3c(N)ncnc3n2C(C)C(=O)O)CC1 (stereo not drawn) [Example I-34] | 1000 to 10000
16 | CC(C)n1c(C#CC2CCC(NC(=O)CCl)CC2)c(-c2ccc(Oc3ccccc3)cc2)c2c(N)ncnc21 (stereo not drawn) [Example I-38] | 10 to 1000
17 | CC(C(N)=O)N1CCC(C#Cc2c(-c3ccc(Oc4ccccc4)cc3)c3c(N)ncnc3n2C(C)C)CC1 (stereo not drawn) [II-150, 2-(4-((4-amino-7-isopropyl-5-(4-phenoxyphenyl)-7H-pyrrolo[2,3-d]pyrimidin-6-yl)ethynyl)piperidin-1-yl)propanamide] | 10 to 1000
18 | C=CC(=O)N1CCC(C#Cc2c(-c3ccc(Oc4cccnc4)cc3)c3c(N)ncnc3n2C(C)C)CC1 [Example I-11] | 10 to 1000
19 | COC(=O)C(C)N1CCC(C#Cc2c(-c3ccc(Oc4ccccc4)cc3)c3c(N)ncnc3n2C(C)C)CC1 (stereo not drawn) [II-148, methyl 2-(4-((4-amino-7-isopropyl-5-(4-phenoxyphenyl)-7H-pyrrolo[2,3-d]pyrimidin-6-yl)ethynyl)piperidin-1-yl)propanoate] | 10 to 1000

Next, values leading:

Row | IC50 [nM] | Compound
20 | 10 to 1000 | C=CC(=O)N1CC[C@H](N2CC(C#Cc3c(-c4ccc(Oc5ccccc5)cc4)c4c(N)ncnc4n3C)C2)[C@H](C)C1 [III-65]
21 | 10 to 1000 | C=CC(=O)N(C)CC(=O)N1CCC(C#Cc2c(-c3ccc(Oc4ccccc4)cc3)c3c(N)ncnc3n2C)CC1 [III-43]
22 | 10 to 1000 | Cn1c(C#CC2CC3(C2)CN(C(=O)/C=C/CN2CCOCC2)C3)c(-c2ccc(Oc3ccccc3)cc2)c2c(N)ncnc21 [III-71]
23 | 10 to 1000 | CC(C)n1c(C#Cc2cnn(C)c2)c(-c2ccc(Oc3ccccc3)cc2)c2c(N)ncnc21 [III-7]
24 | ≤ 10 | C=CC(=O)N1CCC(N2CC(C#Cc3c(-c4ccc(Oc5ccccc5)c5c4OCO5)c4c(N)ncnc4n3C)C2)CC1 [III-85]
25 | ≤ 10 | CC(C)n1c(C#CC2CCN(C(=O)/C=C/CN(C)C)C2)c(-c2ccc(Oc3ccccc3)cc2)c2c(N)ncnc21 (stereo not drawn) [III-12]
26 | 10 to 1000 | Cn1c(C#CC2CN(C(=O)/C=C/CN3CCC3)C2)c(-c2ccc(Oc3ccccc3)cc2)c2c(N)ncnc21 [III-81]
27 | 10 to 1000 | C=CC(=O)N1CCC(C#Cc2c(-c3ccc(Oc4ccccc4)cc3)c3c(N)ncnc3n2C(C)CO)C1 (stereo not drawn) [III-33]
28 | 10 to 1000 | C=CC(=O)N1CCC(N2CC(C#Cc3c(-c4ccc(Oc5ccccc5)cc4)c4c(N)ncnc4n3C)C2)CC1 [III-25]
29 | 1000 to 10000 | C=CC(=O)N1CCC(N2CC(N)(C#Cc3c(-c4ccc(Oc5cccc(C)n5)c(OC)c4)c4c(N)ncnc4n3C)C2)CC1 [III-93]
30 | 10 to 1000 | C=CC(=O)N1CCC(N2CC(C#Cc3c(-c4ccc(Oc5ccccc5)cc4)c4c(N)ncnc4n3C)C2)C[C@H]1C (stereo partly drawn) [III-46]
31 | 10 to 1000 | CC(CO)n1c(C#CC2(O)CCN(C(=O)/C=C/CN(C)C)CC2)c(-c2ccc(Oc3ccccc3)cc2)c2c(N)ncnc21 (stereo not drawn) [III-27]
32 | 10 to 1000 | Cn1c(C#CC2CN(C(=O)/C=C/CN3CCOCC3)C2)c(-c2ccc(Oc3ccccc3)cc2)c2c(N)ncnc21 [III-61]
33 | 10 to 1000 | CC(CO)n1c(C#CC2CCN(C(=O)/C=C/CN(C)C)CC2)c(-c2ccc(Oc3ccccc3)cc2)c2c(N)ncnc21 (stereo not drawn) [III-31]
34 | 10 to 1000 | CC(C)n1c(C#CC2CCOCC2)c(-c2ccc(Oc3ccccc3)cc2)c2c(N)ncnc21 [III-8]
35 | 10 to 1000 | C=C(C)C(=O)N1CCC(O)(C#Cc2c(-c3ccc(Oc4ccccc4)cc3)c3c(N)ncnc3n2C)CC1 [III-35]
36 | 10 to 1000 | C#Cc1c(-c2ccc(Oc3ccccc3)cc2)c2c(N)ncnc2n1C(C)C [III-6]
37 | 10 to 1000 | C=C(C)C(=O)N1CCC(N2CC(C#Cc3c(-c4ccc(Oc5ccccc5)cc4)c4c(N)ncnc4n3C)C2)CC1 [III-38]
38 | 10 to 1000 | C=CC(=O)N1CCC(N2CC(C#Cc3c(-c4ccc(Oc5ccccc5)c(C)c4)c4c(N)ncnc4n3C)C2)CC1 [III-83]

Row | IC50 [nM] | Compound
39 | 10 to 1000 | C=CC(=O)N1CCC(O)(C#Cc2c(-c3ccc(Oc4ccccc4)c(F)c3)c3c(N)ncnc3n2C)CC1 [III-62]
40 | ≤ 10 | CC(C)n1c(C#CC2(O)CCN(C(=O)/C=C/CN(C)C)CC2)c(-c2ccc(Oc3ccccc3)cc2)c2c(N)ncnc21 [III-24]
41 | ≤ 10 | C=CC(=O)N[C@H](C)C(=O)N1CCC(C#Cc2c(-c3ccc(Oc4ccccc4)cc3)c3c(N)ncnc3n2C2CCOC2)CC1 (stereo partly drawn) [III-76]
42 | 10 to 1000 | C=CC(=O)N1CCC(N2CC(C#Cc3c(-c4ccc(Oc5ccccc5)cc4)c4c(N)ncnc4n3C)C2)C(C)C1 (stereo not drawn) [III-49]
43 | 10 to 1000 | C=CC(=O)N1CCC(N2CC(C#Cc3c(-c4ccc(Oc5cccc(C)n5)c5c4OCO5)c4c(N)ncnc4n3C)C2)CC1 [III-90]
44 | 10 to 1000 | C=CC(=O)N1CC[C@@H](N2CC(C#Cc3c(-c4ccc(Oc5ccccc5)cc4)c4c(N)ncnc4n3C)C2)[C@H](C)C1 [III-66]
45 | 10 to 1000 | CN(C)C/C=C/C(=O)N1CCC(C#Cc2c(-c3ccc(Oc4ccccc4)cc3)c3c(N)ncnc3n2C)C1 (stereo not drawn) [III-22]
46 | 10 to 1000 | C=CC(=O)N1CCC(N2CC(O)(C#Cc3c(-c4ccc(Oc5ccccc5)cc4)c4c(N)ncnc4n3C)C2)CC1 [III-23]
47 | 10 to 1000 | C=CC(=O)N[C@H]1CC[C@H](C#Cc2c(-c3ccc(Oc4cccc(C)n4)c(OC)c3)c3c(N)ncnc3n2C)CC1 [III-4]
48 | > 10000 | C=CC(=O)N1CCC(N2CC(C#Cc3c(-c4ccc(Oc5ccccc5)c(C#N)c4)c4c(N)ncnc4n3C)C2)CC1 [III-74]
49 | 1000 to 10000 | C=CC(=O)NCC#Cc1c(-c2ccc(Oc3ncccn3)c(OC)c2)c2c(N)ncnc2n1C [III-94]
50 | 10 to 1000 | C=CC(=O)N1CCC(C#Cc2c(-c3ccc(Oc4ccccc4)cc3)c3c(N)ncnc3n2CCCCN(C)C)C1 (stereo not drawn) [III-20]
51 | 10 to 1000 | C=CC(=O)N1CCC(O)(C#Cc2c(-c3ccc(Oc4ccccc4)c(Cl)c3)c3c(N)ncnc3n2C)CC1 [III-59]
52 | ≤ 10 | C=CC(=O)N[C@@H](C)C(=O)N1CCC(C#Cc2c(-c3ccc(Oc4ccccc4)cc3)c3c(N)ncnc3n2C)CC1 [III-45]
53 | 10 to 1000 | C=CC(=O)N1CCC(N2CC(C#Cc3c(-c4ccc(Oc5ccccc5)cc4OC)c4c(N)ncnc4n3C)C2)CC1 [III-80]
54 | 10 to 1000 | C=CC(=O)N1CCC(N2CC(C#Cc3c(-c4ccc(Oc5cccc(C)n5)c(OC)c4)c4c(N)ncnc4n3C3CCOC3)C2)CC1 (stereo not drawn) [III-91]
55 | 10 to 1000 | C=CC(=O)N1CCC(N2CC(C#Cc3c(-c4ccc(Oc5nnc(C)o5)c(OC)c4)c4c(N)ncnc4n3C)C2)CC1 [III-89]
56 | 10 to 1000 | C=CC(=O)N1CCC(N2CC(C#Cc3c(-c4ccc(Oc5ccccc5)cc4F)c4c(N)ncnc4n3C)C2)CC1 [III-82]
57 | 10 to 1000 | C=CC(=O)N1CCC(N2CC(C#Cc3c(-c4ccc(Oc5ccccc5)cc4)c4c(N)ncnc4n3[C@H]3C[C@H](O)C3)C2)CC1 [III-68]
